Assay: Plasma and urine pharmacokinetics, dose-escalation cohorts
Format: in vivo, human
Details: for AUC(0-inf) / AUC(0-t) / AUC(0–24) / Ae, amount of drug dose excreted in urine / CLR / Cmax / fe, fraction of dose excreted in urine / t1/2 / Cav,ss: mean (SD); for tmax: median (min, max)
Procedure: Blood samples were also collected immediately before the dose on day 7 of cycle 1, days 1 and 15 of cycle 2 and on day 1 of cycle 3, and beyond. All urine produced during the time intervals pre-dose, 0–2 h, 2–4 h, 4–10 h and 10–24 h following the single dose on day –2, and after multiple doses on cycle 1, day 15, was collected.

[1] = 400 mg once daily, cycle 1 day 15, steady state
[2] = 600 mg once daily, cycle 1 day 15, steady state
[3] = 800 mg once daily, cycle 1 day 15, steady state

O=c1[nH]nc2c3c(cccc13)N=C(CN1Cc3ccccc3C1)N2 [E7449]
AUC(0-inf) (200 mg, day –2 single dose): 3320 (1790) (n = 2) ng·h/mL
AUC(0-t) (200 mg, day –2 single dose): 3780 (1180) ng·h/mL
AUC(0–24) (200 mg, day –2 single dose): 3670 (1170) ng·h/mL
Ae, amount of drug dose excreted in urine (200 mg, day –2 single dose): 0.70 (0.60) (n = 3) mg
CLR (200 mg, day –2 single dose): 0.2 (0.15) (n = 3) L/h
Cmax (200 mg, day –2 single dose): 996 (676) ng/mL
fe, fraction of dose excreted in urine (200 mg, day –2 single dose): 0.34 (0.29) (n = 3) %
t1/2 (200 mg, day –2 single dose): 7.08 (1.16) (n = 2) h
tmax (200 mg, day –2 single dose): 3.10 (1.03, 4.18) h
AUC(0-inf) [1]: 3240 (820) (n = 2) ng·h/mL
AUC(0–24) [1]: 4730 (2730) ng·h/mL
Ae, amount of drug dose excreted in urine [1]: 2.05 (1.09) mg
CLR [1]: 0.4 (0.14) L/h
Cav,ss [1]: 197 (114) ng/mL
Cmax [1]: 1130 (1030) ng/mL
fe, fraction of dose excreted in urine [1]: 0.51 (0.27) %
t1/2 [1]: 4.16 (1.72) (n = 2) h
tmax [1]: 4.00 (0.5, 4.00) h
AUC(0-inf) (400 mg, day –2 single dose): 4800 (3000) (n = 3) ng·h/mL
AUC(0-t) (400 mg, day –2 single dose): 4800 (2450) ng·h/mL
AUC(0–24) (400 mg, day –2 single dose): 4690 (2400) ng·h/mL
Ae, amount of drug dose excreted in urine (400 mg, day –2 single dose): 2.77 (1.82) mg
CLR (400 mg, day –2 single dose): 0.6 (0.34) L/h
Cmax (400 mg, day –2 single dose): 999 (619) ng/mL
fe, fraction of dose excreted in urine (400 mg, day –2 single dose): 0.69 (0.45) %
t1/2 (400 mg, day –2 single dose): 8.62 (0.54) (n = 3) h
tmax (400 mg, day –2 single dose): 2.04 (1.03, 4.05) h
AUC(0-inf) [2]: 9660 (4550) (n = 4) ng·h/mL
AUC(0–24) [2]: 7900 (4730) ng·h/mL
Ae, amount of drug dose excreted in urine [2]: 2.25 (1.28) mg
CLR [2]: 0.3 (0.12) L/h
Cav,ss [2]: 329 (198) ng/mL
Cmax [2]: 2230 (1570) ng/mL
fe, fraction of dose excreted in urine [2]: 0.38 (0.21) %
t1/2 [2]: 5.05 (1.76) (n = 4) h
tmax [2]: 1.14 (0.50, 4.05) h
AUC(0-inf) (600 mg, day –2 single dose): 10,700 (5040) (n = 4) ng·h/mL
AUC(0-t) (600 mg, day –2 single dose): 8120 (4990) ng·h/mL
AUC(0–24) (600 mg, day –2 single dose): 7930 (4990) ng·h/mL
Ae, amount of drug dose excreted in urine (600 mg, day –2 single dose): 2.90 (0.51) mg
CLR (600 mg, day –2 single dose): 5.0 (13.0) L/h
Cmax (600 mg, day –2 single dose): 2250 (1330) ng/mL
fe, fraction of dose excreted in urine (600 mg, day –2 single dose): 0.48 (0.09) %
t1/2 (600 mg, day –2 single dose): 7.17 (2.98) (n = 4) h
tmax (600 mg, day –2 single dose): 2.12 (0.50, 24.3) h
AUC(0-inf) [3]: 12,000 (5910) (n = 4) ng·h/mL
AUC(0–24) [3]: 12,400 (5230) ng·h/mL
Ae, amount of drug dose excreted in urine [3]: 4.70 (2.91) mg
CLR [3]: 0.5 (0.34) L/h
Cav,ss [3]: 516 (218) ng/mL
Cmax [3]: 4120 (2160) ng/mL
fe, fraction of dose excreted in urine [3]: 0.68 (0.47) %
t1/2 [3]: 6.44 (1.56) (n = 4) h
tmax [3]: 0.50 (0.0, 1.97) h
AUC(0-inf) (800 mg, day –2 single dose): 12,900 (3350) (n = 4) ng·h/mL
AUC(0-t) (800 mg, day –2 single dose): 11,500 (3370) ng·h/mL
AUC(0–24) (800 mg, day –2 single dose): 11,300 (3230) ng·h/mL
Ae, amount of drug dose excreted in urine (800 mg, day –2 single dose): 4.00 (1.73) mg
CLR (800 mg, day –2 single dose): 0.4 (0.12) L/h
Cmax (800 mg, day –2 single dose): 4430 (2470) ng/mL
fe, fraction of dose excreted in urine (800 mg, day –2 single dose): 0.50 (0.22) %
t1/2 (800 mg, day –2 single dose): 9.45 (2.42) (n = 4) h
tmax (800 mg, day –2 single dose): 0.79 (0.50, 2.00) h
Drug dose excreted unchanged in urine (across doses): Less than 1.5%
Elimination half-life, t1/2 (across doses): approximately 8 h

— publication PMC7434893 (British Journal of Cancer, 2020)
